Measured values taken from the supplement of paper PMC11208160.

Assay: recombinant barcode read abundance after kanamycin selection (control-corrected) (log10(CPM+1)); higher = more efficient recombination; sequences stand for … in AGTGCAGAGAAAATCGGCCAGTTTTCTCTGCCTGCAGTCCGCATGCCGT…AGATTTATGCAGCGGACTGCCTTTCTCCCAAAGTGATAAACCGGACAGTATCATGGACCGGTTTTCCCGGTAATCCGTATTTGCAAGGTTGGTTTCACT; site = the 11-nt target
Summary of the method: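 For this pooled screen, each oligo contained a promoter, a target, a barcode and the J23119-driven first 104 bases of the bridge RNA. Gibson cloning placed it into a vector supplying the remaining 73 bp and a T7-inducible recombinase, and the pool was co-electroporated into E. coli with a donor plasmid. Recombination efficiency is derived from barcode counts per million at recombinant junctions after averaging and control correction, and is expressed on a log scale as log10(CPM+1), with selection on chloramphenicol/ampicillin/kanamycin plus 0.1 mM IPTG against a chloramphenicol/ampicillin LB agar control.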
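Further: IS621 recombinase and bridge RNA in Escherichia coli cells.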

Sequence | recombinant barcode read abundance (log10)
CAGAGTCCTTGGGTTCTAACCTGTTGCAT (site CAGAGTCCTAT) | 1.88
CAGATTCCTTGGGTTCTAACCTGTTGCCT (site CAGATTCCTAG) | 0.542
CAGATTCCTTGGGTTCTAACCTGTTGCCT (site GAGATTCCTAG) | 0.222
CAGCCACCTTGGGTTCTAACCTGTTGCCT (site AAGCCACCTAG) | 0.0775
CAGCCACCTTGGGTTCTAACCTGTTGCCT (site CAGCCACCTAG) | 1.4
CAGCCACCTTGGGTTCTAACCTGTTGCCT (site GAGCCACCTAG) | 0.0262
CAGCCACCTTGGGTTCTAACCTGTTGCCT (site TAGCCACCTAG) | 0
CAGCGGTCTTGGGTTCTAACCTGTTGCGA (site CAGCGGTCTTC) | 1.65
CAGCGGTCTTGGGTTCTAACCTGTTGCGA (site TTATACACTCT) | 0.0232
CAGCTAACTTGGGTTCTAACCTGTTGCCT (site CAAATAACTAG) | 0.0162
CAGCTAACTTGGGTTCTAACCTGTTGCCT (site CAGCTAACTAG) | 1.54
CAGGCGCCTTGGGTTCTAACCTGTTGCCT (site CAGGCGACTAG) | 0.335
CAGGCGCCTTGGGTTCTAACCTGTTGCCT (site CAGGCGCCTAG) | 0.979
CAGGCGCCTTGGGTTCTAACCTGTTGCCT (site CAGGCGGCTAG) | 0.178
CAGGCGCCTTGGGTTCTAACCTGTTGCCT (site CAGGCGTCTAG) | 0.527
CAGGCGTCTTGGGTTCTAACCTGTTGCCT (site CAGGCGACTAG) | 0.109
CAGGCGTCTTGGGTTCTAACCTGTTGCCT (site CAGGCGCCTAG) | 0.289
CAGGCGTCTTGGGTTCTAACCTGTTGCCT (site CAGGCGGCTAG) | 0.111
CAGGCGTCTTGGGTTCTAACCTGTTGCCT (site CAGGCGTCTAG) | 0.59
CAGGGGACTTGGGTTCTAACCTGTTGCCG (site CAAGGGACTCC) | 0.177
CAGGGGACTTGGGTTCTAACCTGTTGCCG (site CAGGGGACTCG) | 0.734
CAGGGGTCTTGGGTTCTAACCTGTTGCAT (site AGCCTCCCTTG) | 0.0284

Sequence | recombinant barcode read abundance (log10)
CAGGGGTCTTGGGTTCTAACCTGTTGCAT (site CAGGGGTCTAT) | 2.04
CAGTAATCTTGGGTTCTAACCTGTTGCCT (site CAGTAATCTAG) | 0.683
CAGTAATCTTGGGTTCTAACCTGTTGCCT (site CAGTACTCTAG) | 0.138
CAGTAATCTTGGGTTCTAACCTGTTGCCT (site CAGTAGTCTAG) | 0.169
CAGTAATCTTGGGTTCTAACCTGTTGCCT (site CAGTATTCTAG) | 0
CAGTCTACTTGGGTTCTAACCTGTTGCCT (site CAGTCTACTAG) | 0.115
CAGTCTACTTGGGTTCTAACCTGTTGCCT (site CCGTCTACTAG) | 0.26
CAGTCTACTTGGGTTCTAACCTGTTGCCT (site CGGTCTACTAG) | 0.132
CAGTCTACTTGGGTTCTAACCTGTTGCCT (site CTGTCTACTAG) | 0.0878
CATAACTCTTGGGTTCTAACCTGTTGCCT (site AATAACTCTAG) | 0.0585
CATAACTCTTGGGTTCTAACCTGTTGCCT (site CATAACTCTAG) | 1.3
CATAACTCTTGGGTTCTAACCTGTTGCCT (site GATAACTCTAG) | 0.331
CATAACTCTTGGGTTCTAACCTGTTGCCT (site TATAACTCTAG) | 0.0747
CATAAGCCTTGGGTTCTAACCTGTTGCCT (site CATAAGCCTAG) | 0.633
CATAAGCCTTGGGTTCTAACCTGTTGCCT (site CATCAGCCTAG) | 0.07
CATAAGCCTTGGGTTCTAACCTGTTGCCT (site CATGAGCCTAG) | 0.0152
CATAAGCCTTGGGTTCTAACCTGTTGCCT (site CATTAGCCTAG) | 0.0852
CATAGATCTTGGGTTCTAACCTGTTGCAT (site ATCTAGGCTCG) | 0.0128
CATAGATCTTGGGTTCTAACCTGTTGCAT (site CATAGATCTAT) | 1.22
CATAGTCCTTGGGTTCTAACCTGTTGCCT (site CAGAGTCCTAA) | 0.0573
CATAGTCCTTGGGTTCTAACCTGTTGCCT (site CATAGTCCTAG) | 0.605
CATATAGCTTGGGTTCTAACCTGTTGCAT (site CATATAGCTAT) | 0.693

Sequence | recombinant barcode read abundance (log10)
CATATAGCTTGGGTTCTAACCTGTTGCAT (site GATCTAGCTAT) | 0.667
CATCAAGCTTGGGTTCTAACCTGTTGCCT (site CATCAAGCTAG) | 0.929
CATCAAGCTTGGGTTCTAACCTGTTGCCT (site GTATGGACTTT) | 0.0466
CATCCGACTTGGGTTCTAACCTGTTGCTC (site AGATTTCCTAT) | 0.122
CATCCGACTTGGGTTCTAACCTGTTGCTC (site CATCCGACTGA) | 0.193
CATCCGCCTTGGGTTCTAACCTGTTGCCT (site CATCCGACTAG) | 0.0105
CATCCGCCTTGGGTTCTAACCTGTTGCCT (site CATCCGCCTAG) | 1.11
CATCCGCCTTGGGTTCTAACCTGTTGCCT (site CATCCGGCTAG) | 0.0751
CATCCGCCTTGGGTTCTAACCTGTTGCCT (site CATCCGTCTAG) | 0.0465
CATCGAGCTTGGGTTCTAACCTGTTGCCG (site CAACGAGCTCG) | 0.228
CATCGAGCTTGGGTTCTAACCTGTTGCCG (site CACCGAGCTCG) | 0.43
CATCGAGCTTGGGTTCTAACCTGTTGCCG (site CAGCGAGCTCG) | 0.236
CATCGAGCTTGGGTTCTAACCTGTTGCCG (site CATCGAGCTCG) | 0.283
CATCGCTCTTGGGTTCTAACCTGTTGCTT (site CACCGTTCTAA) | 0.0858
CATCGCTCTTGGGTTCTAACCTGTTGCTT (site CATCGCTCTAA) | 0.0993
CATGCGACTTGGGTTCTAACCTGTTGCTG (site CATGCGACTCA) | 0.459
CATGCGACTTGGGTTCTAACCTGTTGCTG (site CATGCTACTGA) | 0.351
CATGCGCCTTGGGTTCTAACCTGTTGCGG (site CATGCGCCTCC) | 1.26
CATGCGCCTTGGGTTCTAACCTGTTGCGG (site CATGTGTCTCC) | 0.0282
CATGCTTCTTGGGTTCTAACCTGTTGCCT (site AGAAAAGCTTT) | 0.167
CATGCTTCTTGGGTTCTAACCTGTTGCCT (site CATGCTTCTAG) | 0.526
CATGGGACTTGGGTTCTAACCTGTTGCAT (site CATGGGACTAT) | 2.06

Sequence | recombinant barcode read abundance (log10)
CATGGGACTTGGGTTCTAACCTGTTGCAT (site GGCAAACCTCC) | 0.202
CATGTGTCTTGGGTTCTAACCTGTTGCGG (site CATGCGCCTCC) | 0.0713
CATGTGTCTTGGGTTCTAACCTGTTGCGG (site CATGTGTCTCC) | 2.69
CATTATTCTTGGGTTCTAACCTGTTGCCT (site CATAATTCTAG) | 0.04
CATTATTCTTGGGTTCTAACCTGTTGCCT (site CATCATTCTAG) | 0.0417
CATTATTCTTGGGTTCTAACCTGTTGCCT (site CATGATTCTAG) | 0.071
CATTATTCTTGGGTTCTAACCTGTTGCCT (site CATTATTCTAG) | 0.0377
CATTCCACTTGGGTTCTAACCTGTTGCCT (site CATTCCACTAG) | 0.369
CATTCCACTTGGGTTCTAACCTGTTGCCT (site TCGCGTGCTCC) | 0.0105
CATTCTGCTTGGGTTCTAACCTGTTGCCT (site CAATCTGCTAG) | 0.136
CATTCTGCTTGGGTTCTAACCTGTTGCCT (site CACTCTGCTAG) | 0.0741
CATTCTGCTTGGGTTCTAACCTGTTGCCT (site CAGTCTGCTAG) | 0.136
CATTCTGCTTGGGTTCTAACCTGTTGCCT (site CATTCTGCTAG) | 0.12
CATTGGACTTGGGTTCTAACCTGTTGCCT (site CAATGGACTAG) | 0.112
CATTGGACTTGGGTTCTAACCTGTTGCCT (site CACTGGACTAG) | 0.0737
CATTGGACTTGGGTTCTAACCTGTTGCCT (site CAGTGGACTAG) | 0.084
CATTGGACTTGGGTTCTAACCTGTTGCCT (site CATTGGACTAG) | 0.662
CATTGTCCTTGGGTTCTAACCTGTTGCGT (site CATTATCCTAC) | 0.15
CATTGTCCTTGGGTTCTAACCTGTTGCGT (site CATTGTCCTAC) | 1.38
CCAAAGGCTTGGGTTCTAACCTGTTGCCT (site CCAAAGGCTAG) | 0.656
